Test results as given in patent US12161762B2, “Nanohelix-substrate complex for controlling macrophage behavior, preparation method thereof, and method of controlling adhesion and polarization of macrophage by using the same” (Korea University Research and Business Foundation, priority 2020, dated 2024).

Test system: Macrophages (RAW 264.7)
Test: Macrophage polarization on the substrate with inhibitors of ROCK, myosin II or actin polymerization
Type: cell-based
Conditions: 50 μM Y27632, 10 blebbistatin, 2 μg/mL cytochalasin D; for M1 polarization suppression of macrophages (CD68): M1 medium, 36 hours, bimodal switching "ON" state; for stimulation of robust adhesion (cell area, elongation factor) and expression of M2 polarization (Arg-1 expression): M2 medium, inhibitor treated
Description: M1 medium used for assessment of the phenotypic polarization of macrophages was prepared by using a basal medium with 10 ng/mL each of lipopolysaccharide (LPS) and recombinant interferon-gamma (IFN-γ). M2 medium was prepared by using a basal medium with 20 ng/mL each of interleukin-4 (IL4) and interleukin-13 (IL-13). The adhesion-assisted M2 phenotypic polarization of the macrophages was assessed with inhibitors of ROCK (50 μM Y27632), myosin II (10 blebbistatin), or actin polymerization (2 μg/mL of cytochalasin D).
An upper part of FIG. 19 is a confocal immunofluorescent image of CD68, F-actin, and nuclei in macrophages cultured in an M1 polarization medium with and without an inhibitor for ROCK (Y27632), myosin II (blebbistatin), or actin polymerization (cytochalasin D) for 36 hours against and a graph illustrating a cell area, a cell elongation factor, and CD68 fluorescence intensity calculated based on a confocal immunofluorescent experiment result, and a lower part of FIG. 19 is a confocal immunofluorescent image of Arg-1, and F-actin, and nuclei in macrophages cultured in an M2 polarization medium with and without an inhibitor for ROCK (Y27632), myosin II (blebbistatin), or actin polymerization (cytochalasin D) and a graph illustrating a cell area, a cell elongation factor, and Arg-1 fluorescence intensity calculated based on the confocal immunofluorescent experiment result, and a scale bar represents 20 μm.

| SMILES | M1 polarization suppression of macrophages (CD68) | stimulation of robust adhesion (cell area, elongation factor) and expression of M2 polarization (Arg-1 expression) |
| --- | --- | --- |
| C[C@@H](N)[C@H]1CC[C@H](C(=O)Nc2ccncc2)CC1 [Example Y27632, Y27632] | continuously hindered | hindered |
| Cc1ccc2c(c1)C(=O)C1(O)CCN(c3ccccc3)C1=N2 (stereo not drawn) [blebbistatin] | continuously hindered | hindered |
| C=C1[C@@H](C)[C@H]2[C@H](Cc3ccccc3)NC(=O)[C@]23[C@H](OC(C)=O)/C=C/[C@@](C)(O)C(=O)[C@@H](C)C/C=C/[C@H]3[C@@H]1O [cytochalasin D] | continuously hindered | hindered |
